Source: US8691529B2, “Increasing protein production by increasing ABC50 expression or activity” (University Health Network, priority 2009, dated 2014)

Experiments:
HL60 cells [1] = experiment: Apoptosis induction by ER stress agents and etoposide, AnnexinV/PI flow cytometry, HL60 cells; format: cell-based, Human; conditions: 15 μM Ec 2 hours, 200 nM Tg, 1 μM Tu or 5 μM etoposide overnight; for sensitivity to apoptosis induction, ABC50 knockdown vs vector control: HL60 ABC50 knockdown cells; for sensitivity to apoptosis induction, ABC50 overexpressing vs control cells: HL60 ABC50 overexpressing cells
Method: FIG. 3 ABC50 knockdown alters growth rate and sensitivity to Ec in HL60 cells. A: Western blot of ABC50 expression in HL60 cells infected with vector control or ABC50 shRNA. B: Cell growth kinetics of control and ABC50 knocked-down cells. Values are means and standard errors determined from triplicate cultures and is representative measurement from a series of three independent experiments. ***indicates p<0.001 at 48 hours for ABC50 KD cells vs control. C: Apoptosis induction by serum withdrawal (SW), Ec, Tg, Tu and etoposide (Eto) in HL60 vector control and ABC50 knockdown cells. Cells were exposed to 15 μM Ec for 2 hours followed by overnight recovery as described in Materials and Methods. Cells were incubated overnight in the absence of serum, 200 nM Tg, 1 μM Tu or 5 μM etoposide. The following day, cells were stained with PI and AnnexinV and analysed by flow cytometry. AnnexinV positive, PI negative cells represent early apoptotic cells, AnnexinV positive, PI positive cells represent late apoptotic or necrotic cells. Plotted is early and late apoptotic cells combined. *p<0.05, **p<0.01 comparing knockdown or overexpressing cells to their vector control.
FIG. 4 Effect of ABC50 overexpression on growth rate and sensitivity to ER stress agents in HL60 cells. A: Western blot of ABC50 expression in HL60 cells infected with vector control or ABC50 OE vector. B: Cell growth kinetics of control and ABC50 overexpressing cells. Values are means and standard errors determined from triplicate cultures and is representative measurement from a series of three independent experiments. C: Apoptosis induction by serum withdrawal (SW), Ec, Tg, Tu and etoposide (Eto) in HL60 vector control and ABC50 overexpressing cells. Cells were exposed to 15 μM Ec for 2 hours followed by overnight recovery as described in Materials and Methods. Cells were incubated overnight in the absence of serum, 200 nM Tg, 1 μM Tu or 5 μM etoposide. The following day, cells were stained with PI and AnnexinV and analysed by flow cytometry. AnnexinV positive, PI negative cells represent early apoptotic cells, AnnexinV positive, PI positive cells represent late apoptotic or necrotic cells. Plotted is early and late apoptotic cells combined. *p<0.05, **p<0.01 comparing knockdown or overexpressing cells to their vector control.
(§1) To measure apoptosis induced by Econazole (Ec; Sigma-Aldrich, St. Louis, Mo.), cells were treated with Ec in RPMI containing 1% FBS for 2 hours at 37° C. then further incubated overnight in RPMI containing 10% FBS. Apoptosis induced by thapsigargin (Tg; Sigma-Aldrich) or Tunicamycin (Tu; Sigma-Aldrich) was determined after overnight incubation in RPMI containing 1% FBS. The cells were washed with PBS and stained with Annexin V-cy5 Apoptosis Detection kit (Biovision. Inc., Mountain View, Calif.)/PI and analysed by flow cytometry.

[2] = test system: ser51-phosphorylated eIF2α; experiment: ER stress response, Western blot of ser51-phosphorylated eIF2α; format: cell-based, Human; conditions: Ec 15 μM, Tg 200 nM, 60 minutes; for levels of phosphorylated eIF2α: ABC50 overexpressing cells, Tu 200 ng/ml; for induction of increased levels of phosphorylated eIF2α: ABC50 knockdown cells vs vector control
Method: FIG. 6. ABC50 knockdown or overexpression alters the ER stress response. Vector controls, knockdown (A, B) or overexpressing cells (C, D) were exposed to Ec (15 μM), Tg (200 nM) or Tu (200 ng/ml) for 60 minutes. The cells were collected, lysed in RIPA buffer, resolved by SDS-PAGE and analysed with anti-sera specific for A, C: ser51-phosphorylated eIF2α or total eIF2α, B, D: BiP or actin. Numbers represent relative expression levels compared to control normalized to either total eIF2α or actin. The blots are representative of two independent experiments.
Cells were washed with PBS and lysed with Triple lysis buffer (50 mM Tris pH7.0, 150 mM NaCl, 0.1% SDS, 1% NP-40 and 0.5% DOC). Proteinase inhibitor (Boehringer) was added to 10 ml lysis buffer before use. Protein concentration was determined with the Pierce BCA kit. 20 μg of total protein was loaded onto 10% SDS-PAGE, transferred onto filters and blotted with rabbit anti-human ABC50 polyclonal serum (kind gift from Dr. C. Proud, Vancouver, Canada). eIF2α and its phosphorylated form (Ser51) were detected with rabbit polyclonal antibodies from Cell Signalling (Danvers, Mass.). Mouse anti-BiP/GRP78 antibodies were obtained from BD Biosciences (San Jose, Calif.) Anti-actin (pan Ab-5, Clone ACTN05) (Labvision/Neomarker, Fremont, Calif.) was used as a loading control.

sp2 cells = experiment: Cell viability of Ec-selected sp2 cells, Trypan Blue staining; format: cell-based, mouse; conditions: exposure overnight
Method: FIG. 10. Generation of Ec-resistant sp2 cells. Sp2 cells were exposed to increasing concentrations of Econazole. Cells remaining after treatment were expanded and subjected to additional rounds of selection. A: cell viability for unselected (U) and selected (S) cells. Exposure to Econazole was for 2 hours in low serum medium, followed by a recovery period of 24 hours in full growth medium. Cells were exposed to Thapsigargin (Tg) and Tunicamycin (Tu) overnight. Cell viability was determined by Trypan Blue staining of 200 cells. B: Western blot of ABC50 expression in sp2 cells selected for resistance to Ec showing increased expression. C: Quantitation of expression normalized to actin. **p<0.01, ***p<0.001 comparing selected vs unselected.

E2R2 cells = experiment: Apoptosis induction by Ec, AnnexinV/PI flow cytometry, E2R2 cells; format: cell-based, Human; conditions: 15 μM Ec for 2 hours, overnight recovery
Method: FIG. 2 ABC50 knockdown partially reverses resistance to Ec in E2R2 cells. A: Western blot of ABC50 expression in E2R2 cells infected with vector control or ABC50 shRNA. B: Apoptosis induction by Ec in E2R2 vector control and ABC50 knockdown cells. Cells were exposed to 15 μM Ec for 2 hours followed by overnight recovery as described in Materials and Methods. The following day, cells were stained with PI and AnnexinV and analysed by flow cytometry. AnnexinV positive, PI negative cells represent early apoptotic cells, AnnexinV positive, PI positive cells represent late apoptotic or necrotic cells.
as §1

HL60 cells [3] = experiment: Global protein synthesis, 3H-leucine incorporation; format: cell-based, Human; conditions: 15 μM Ec for 15 minutes
Method: FIG. 8 Effect of ABC50 knockdown or overexpression on global protein synthesis. Cells were incubated with 15 μM Ec for 15 minutes, pulse-labelled with 3H-leucine and incorporation was measured as described in Materials and Methods. A: Vector control vs ABC50 knock-down. B: Vector control vs ABC50 overexpression. The values are averages and standard errors from 4 replicates. This experiment was repeated six times. *p<0.05, **p<0.01 comparing knockdown or overexpressing cells to their vector control.
Cells (2×10^5/sample) were collected, washed with PBS and then re-suspended in RPMI supplemented with fatty acid-free bovine serum albumin (BSA; 0.05%; Sigma). Cells were treated with Ec (0, 15 μM) for 15 min. After centrifugation (2,500 rpm; 5 min), cells were pulse-labeled with [^3H]-leucine (50 μCi/ml) for 10 min (37° C.; 5% CO2) in leucine-free RPMI. After two washes in RPMI, pellets were lysed with Triton X-100 (0.5% in PBS) followed by trichloroacetic acid (TCA, 10% w/v; 4° C.). Samples were washed in TCA (5% w/v), and the protein pellets were re-suspended in microscintillant (Packard, Conn., USA) and measured using a microplate scintillation counter (Packard).

Row | Molecule | sensitivity to apoptosis induction, ABC50 knockdown vs vector control (HL60 cells [1]) | sensitivity to apoptosis induction, ABC50 overexpressing vs control cells (HL60 cells [1]) | levels of phosphorylated eIF2α [2] | resistance of Ec-resistant sp2 cells (cell viability, selected vs unselected) (sp2 cells) | induction of increased levels of phosphorylated eIF2α [2] | combined early and late apoptosis (E2R2 cells; E2R2 ABC50 knockdown cells) | combined early and late apoptosis (E2R2 cells; E2R2 vector control cells) | protein synthesis rates after exposure (HL60 cells [3]; ABC50 knock down cells) | protein synthesis level after exposure, compared to control cells (HL60 cells [3]; ABC50 overexpressing cells) | protein synthesis levels after exposure (HL60 cells [3]; vector control cells)
1 | COc1cc([C@@H]2c3cc4c(cc3[C@@H](O[C@@H]3O[C@@H]5CO[C@@H](C)O[C@H]5[C@H](O)[C@H]3O)[C@H]3COC(=O)[C@H]23)OCO4)cc(OC)c1O [etoposide] | did not affect sensitivity | unchanged | – | – | – | – | – | – | – | –
2 | Tunicamycin | significantly increased the sensitivity | decreased sensitivity | reduced levels | relatively resistant | – | – | – | – | – | –
3 | C/C=C(/C)C(=O)O[C@H]1C(C)=C2[C@H]([C@@H]1OC(=O)CCCCCCC)[C@@](C)(OC(C)=O)C[C@H](OC(=O)CCC)[C@@]1(O)[C@H]2OC(=O)[C@@]1(C)O [Tg, thapsigargin] | significantly increased the sensitivity | decreased sensitivity | reduced levels | relatively resistant | particularly effective | – | – | – | – | –
4 | Clc1ccc(COC(Cn2ccnc2)c2ccc(Cl)cc2Cl)cc1 (centres unmarked) [Ec, 1-[2-[(4-chlorophenyl)methoxy]-2-(2,4-dichlorophenyl)ethyl]-1H-imidazole] | significantly increased the sensitivity | decreased sensitivity | reduced levels | – | particularly effective | 21.4% | 7.6% | reduced protein synthesis rates even further | significantly less reduced | significant decrease
